According to the NIST ThermoML archive (doi:10.1021/acs.jced.9b00248):
Numbers after ± are expanded uncertainties.

Test: mn = molality of the nth substance listed, in mol/kg
Conditions: Liquid; for viscosity: Vibrating wire viscometry; for mass density: Vibrating tube method

[Ca+2].[Cl-].[Cl-] [calcium chloride] + O
Conditions	mass density [kg/m3]	viscosity [mPa·s]
274.75 K, 1300 kPa, m1 = 1	–	2.142 ± 0.065
274.75 K, 49900 kPa, m1 = 1	–	2.117 ± 0.065
274.75 K, 99700 kPa, m1 = 1	–	2.096 ± 0.064
274.87 K, 1270 kPa, m1 = 1	1088.12 ± 0.72	–
274.87 K, 15180 kPa, m1 = 1	1094.18 ± 0.82	–
274.87 K, 30070 kPa, m1 = 1	1100.27 ± 0.84	–
274.87 K, 49880 kPa, m1 = 1	1108.27 ± 0.78	–
274.87 K, 69750 kPa, m1 = 1	1115.89 ± 0.9	–
274.87 K, 99730 kPa, m1 = 1	1126.88 ± 0.98	–
274.98 K, 1310 kPa, m1 = 2.5	1201.94 ± 1.2	–
274.98 K, 15210 kPa, m1 = 2.5	1207.74 ± 1.3	–
274.98 K, 30100 kPa, m1 = 2.5	1212.77 ± 1.3	–
274.98 K, 49930 kPa, m1 = 2.5	1219.37 ± 1.4	–
274.98 K, 69770 kPa, m1 = 2.5	1225.9 ± 1.4	–
274.98 K, 99750 kPa, m1 = 2.5	1235.53 ± 1.6	–
296.18 K, 1280 kPa, m1 = 1	1082.39 ± 0.81	–
296.18 K, 15170 kPa, m1 = 1	1087.93 ± 0.73	–
296.18 K, 30070 kPa, m1 = 1	1093.68 ± 0.83	–
296.18 K, 49900 kPa, m1 = 1	1101.19 ± 0.85	–
296.18 K, 69750 kPa, m1 = 1	1108.4 ± 0.88	–
296.18 K, 99730 kPa, m1 = 1	1118.84 ± 0.96	–
296.21 K, 30100 kPa, m1 = 1	–	1.224 ± 0.038
296.21 K, 99700 kPa, m1 = 1	–	1.237 ± 0.038
296.22 K, 1310 kPa, m1 = 2.5	1192.77 ± 1.2	–
296.22 K, 15240 kPa, m1 = 2.5	1197.73 ± 1.3	–
296.22 K, 30130 kPa, m1 = 2.5	1202.82 ± 1.2	–
296.22 K, 49960 kPa, m1 = 2.5	1209.46 ± 1.3	–
296.22 K, 69780 kPa, m1 = 2.5	1215.91 ± 1.4	–
296.22 K, 99740 kPa, m1 = 2.5	1225.32 ± 1.5	–
323.23 K, 1280 kPa, m1 = 2.5	1179.3 ± 1.2	–
323.23 K, 15180 kPa, m1 = 2.5	1184.63 ± 1.2	–
323.23 K, 30060 kPa, m1 = 2.5	1189.89 ± 1.2	–
323.23 K, 49910 kPa, m1 = 2.5	1196.52 ± 1.3	–
323.23 K, 69770 kPa, m1 = 2.5	1202.94 ± 1.3	–
323.23 K, 99730 kPa, m1 = 2.5	1212.15 ± 1.5	–
323.31 K, 1240 kPa, m1 = 1	1071.6 ± 0.8	–
323.31 K, 15190 kPa, m1 = 1	1077.19 ± 0.8	–
323.31 K, 30070 kPa, m1 = 1	1082.81 ± 0.81	–
323.31 K, 49880 kPa, m1 = 1	1090.06 ± 0.83	–
323.31 K, 69760 kPa, m1 = 1	1097.04 ± 0.86	–
323.31 K, 99750 kPa, m1 = 1	1107.2 ± 0.93	–
323.4 K, 1300 kPa, m1 = 1	–	0.736 ± 0.023
323.4 K, 15200 kPa, m1 = 1	–	0.734 ± 0.023
323.4 K, 30100 kPa, m1 = 1	–	0.732 ± 0.023
323.4 K, 49900 kPa, m1 = 1	–	0.728 ± 0.023
323.4 K, 69800 kPa, m1 = 1	–	0.725 ± 0.023
348.19 K, 1320 kPa, m1 = 2.5	1165.84 ± 1.2	–
348.19 K, 15220 kPa, m1 = 2.5	1170.56 ± 1.2	–
348.19 K, 30110 kPa, m1 = 2.5	1175.97 ± 1.2	–
348.19 K, 49950 kPa, m1 = 2.5	1182.84 ± 1.2	–
348.19 K, 69790 kPa, m1 = 2.5	1189.55 ± 1.3	–
348.19 K, 99790 kPa, m1 = 2.5	1199.01 ± 1.4	–
348.2 K, 1300 kPa, m1 = 1	1058.82 ± 0.79	–
348.2 K, 15220 kPa, m1 = 1	1064.57 ± 0.79	–
348.2 K, 30100 kPa, m1 = 1	1070.33 ± 0.8	–
348.2 K, 49930 kPa, m1 = 1	1077.65 ± 0.82	–
348.2 K, 69790 kPa, m1 = 1	1084.72 ± 0.84	–
348.2 K, 99770 kPa, m1 = 1	1094.89 ± 0.9	–
373.2 K, 1350 kPa, m1 = 2.5	1151.73 ± 1.2	–
373.2 K, 15250 kPa, m1 = 2.5	1156.76 ± 1.2	–
373.2 K, 30140 kPa, m1 = 2.5	1161.97 ± 1.2	–
373.2 K, 49960 kPa, m1 = 2.5	1168.74 ± 1.2	–
373.2 K, 69820 kPa, m1 = 2.5	1175.25 ± 1.3	–
373.2 K, 99780 kPa, m1 = 2.5	1184.69 ± 1.4	–
373.22 K, 1320 kPa, m1 = 1	1042.78 ± 0.78	–
373.22 K, 15230 kPa, m1 = 1	1048.82 ± 0.79	–
373.22 K, 30130 kPa, m1 = 1	1054.88 ± 0.79	–
373.22 K, 49940 kPa, m1 = 1	1062.61 ± 0.8	–
373.22 K, 69790 kPa, m1 = 1	1070 ± 0.82	–
373.22 K, 99790 kPa, m1 = 1	1080.38 ± 0.87	–
373.45 K, 30100 kPa, m1 = 1	–	0.393 ± 0.013
373.45 K, 49900 kPa, m1 = 1	–	0.399 ± 0.013
398.26 K, 1360 kPa, m1 = 2.5	1134.93 ± 1.2	–
398.26 K, 15270 kPa, m1 = 2.5	1140.45 ± 1.2	–
398.26 K, 30160 kPa, m1 = 2.5	1146.01 ± 1.2	–
398.26 K, 49970 kPa, m1 = 2.5	1153.12 ± 1.2	–
398.26 K, 69820 kPa, m1 = 2.5	1159.89 ± 1.3	–
398.26 K, 99800 kPa, m1 = 2.5	1169.63 ± 1.4	–
398.28 K, 1320 kPa, m1 = 1	1024.8 ± 0.77	–
398.28 K, 15230 kPa, m1 = 1	1031.2 ± 0.78	–
398.28 K, 30120 kPa, m1 = 1	1037.76 ± 0.78	–
398.28 K, 49940 kPa, m1 = 1	1045.99 ± 0.79	–
398.28 K, 69780 kPa, m1 = 1	1053.7 ± 0.8	–
398.28 K, 99790 kPa, m1 = 1	1064.71 ± 0.84	–
398.33 K, 15200 kPa, m1 = 1	–	0.31 ± 0.01
398.33 K, 30100 kPa, m1 = 1	–	0.315 ± 0.011
398.33 K, 49900 kPa, m1 = 1	–	0.321 ± 0.011
423.46 K, 1400 kPa, m1 = 1	–	0.255 ± 0.009
423.46 K, 50000 kPa, m1 = 1	–	0.266 ± 0.009
423.46 K, 69800 kPa, m1 = 1	–	0.272 ± 0.009
423.6 K, 1340 kPa, m1 = 1	1004.42 ± 0.76	–
423.6 K, 1360 kPa, m1 = 2.5	1116.33 ± 1.2	–
423.6 K, 15250 kPa, m1 = 1	1011.3 ± 0.77	–
423.6 K, 15260 kPa, m1 = 2.5	1122.22 ± 1.2	–
423.6 K, 30150 kPa, m1 = 1	1018.56 ± 0.77	–
423.6 K, 30150 kPa, m1 = 2.5	1128.37 ± 1.2	–
423.6 K, 49950 kPa, m1 = 1	1027.46 ± 0.78	–
423.6 K, 49980 kPa, m1 = 2.5	1136 ± 1.2	–
423.6 K, 69810 kPa, m1 = 2.5	1143.19 ± 1.3	–
423.6 K, 69820 kPa, m1 = 1	1035.71 ± 0.79	–
423.6 K, 99790 kPa, m1 = 2.5	1153.51 ± 1.3	–
423.6 K, 99810 kPa, m1 = 1	1047.43 ± 0.81	–
448.43 K, 1400 kPa, m1 = 1	–	0.226 ± 0.008
448.43 K, 69800 kPa, m1 = 1	–	0.235 ± 0.008
448.83 K, 1360 kPa, m1 = 2.5	1096.34 ± 1.2	–
448.83 K, 15250 kPa, m1 = 2.5	1102.89 ± 1.2	–
448.83 K, 30150 kPa, m1 = 2.5	1109.65 ± 1.2	–
448.83 K, 49970 kPa, m1 = 2.5	1117.84 ± 1.2	–
448.83 K, 69820 kPa, m1 = 2.5	1125.62 ± 1.2	–
448.83 K, 99830 kPa, m1 = 2.5	1136.51 ± 1.3	–
448.84 K, 1360 kPa, m1 = 1	982.19 ± 0.75	–
448.84 K, 15270 kPa, m1 = 1	989.78 ± 0.76	–
448.84 K, 30160 kPa, m1 = 1	997.78 ± 0.76	–
448.84 K, 49980 kPa, m1 = 1	1007.39 ± 0.76	–
448.84 K, 69830 kPa, m1 = 1	1016.54 ± 0.77	–
448.84 K, 99810 kPa, m1 = 1	1029.19 ± 0.78	–
